From patent US20230002357A1, “7-PYRIMIDINE-2-YL-OXY-INDAZOLE DERIVATIVES AND THEIR USE AS HERBICIDES” (SYNGENTA CROP PROTECTION AG, priority 2019, published 2023)

Tests used:
Assay type in all cases: in vivo
Conditions in all cases: 250 g/ha, evaluated after 13 days
[1] = tested on: Amaranthus retoflexus (AMARE); assay: Post-emergence Test, glasshouse, AMARE
Summary of the method: (§1)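 Damage was scored 13 days after treatment on a five-point scale (1=0-20% up to 5=81-100%). Plants in soil were sprayed one day after sowing for pre-emergence or eight days after for post-emergence, at 250 g/ha unless otherwise stated. The glasshouse was held at 24/16 °C with 14 h light.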

ABUTH [2] = assay: Post-emergence Test, glasshouse, ABUTH
Summary of the method: as §1

Setaria faberi (SETFA) [3] = assay: Post-emergence Test, glasshouse, SETFA
Summary of the method: as §1

[4] = tested on: Echinochloa crus-galli (ECHCG); assay: Post-emergence Test, glasshouse, ECHCG
Summary of the method: as §1

IPOHE [5] = assay: Post-emergence Test, glasshouse, IPOHE
Summary of the method: as §1

[6] = tested on: Amaranthus retoflexus (AMARE); assay: Pre-emergence Test, glasshouse, AMARE
Summary of the method: as §1

ABUTH [7] = assay: Pre-emergence Test, glasshouse, ABUTH
Summary of the method: as §1

Setaria faberi (SETFA) [8] = assay: Pre-emergence Test, glasshouse, SETFA
Summary of the method: as §1

[9] = tested on: Echinochloa crus-galli (ECHCG); assay: Pre-emergence Test, glasshouse, ECHCG
Summary of the method: as §1

IPOHE [10] = assay: Pre-emergence Test, glasshouse, IPOHE
Summary of the method: as §1

Structure (SMILES) | percentage damage caused to the plant, five-point scale, AMARE [1] | percentage damage caused to the plant, five-point scale, ABUTH (ABUTH [2]) | percentage damage caused to the plant, five-point scale, SETFA (Setaria faberi (SETFA) [3]) | percentage damage caused to the plant, five-point scale, ECHCG [4] | percentage damage caused to the plant, five-point scale, IPOHE (IPOHE [5]) | percentage damage caused to the plant, five-point scale, AMARE [6] | percentage damage caused to the plant, five-point scale, ABUTH (ABUTH [7]) | percentage damage caused to the plant, five-point scale, SETFA (Setaria faberi (SETFA) [8]) | percentage damage caused to the plant, five-point scale, ECHCG [9] | percentage damage caused to the plant, five-point scale, IPOHE (IPOHE [10])
C=C(C)Cn1nc(Cl)c2cccc(Oc3ncc(Cl)cn3)c21 [Compound 1.064] | 2 (2=21-40%) | 2 (2=21-40%) | 1 (1=0-20%) | 1 (1=0-20%) | 1 (1=0-20%) | 1 (1=0-20%) | 1 (1=0-20%) | 1 (1=0-20%) | 1 (1=0-20%) | 1 (1=0-20%)
C=CCn1nc(Cl)c2cccc(Oc3ncc(Cl)cn3)c21 [Compound 1.065] | 4 (4=61-80%) | 2 (2=21-40%) | 2 (2=21-40%) | 2 (2=21-40%) | 2 (2=21-40%) | 2 (2=21-40%) | 2 (2=21-40%) | 4 (4=61-80%) | 3 (3=41-60%) | 1 (1=0-20%)
CC(C)=CCCn1nc(Cl)c2cccc(Oc3ncc(Cl)cn3)c21 [Compound 1.066] | 4 (4=61-80%) | 4 (4=61-80%) | 3 (3=41-60%) | 3 (3=41-60%) | 2 (2=21-40%) | 3 (3=41-60%) | 2 (2=21-40%) | 5 (5=81-100%) | 4 (4=61-80%) | 1 (1=0-20%)
CC(C)=CCn1nc(Cl)c2cccc(Oc3ncc(Cl)cn3)c21 [Compound 1.067] | 4 (4=61-80%) | 3 (3=41-60%) | 3 (3=41-60%) | 3 (3=41-60%) | 2 (2=21-40%) | 3 (3=41-60%) | 2 (2=21-40%) | 4 (4=61-80%) | 3 (3=41-60%) | 1 (1=0-20%)
FC(F)(F)CCCCn1nc(Cl)c2cccc(Oc3ncc(Cl)cn3)c21 [Compound 1.068] | 5 (5=81-100%) | 4 (4=61-80%) | 3 (3=41-60%) | 3 (3=41-60%) | 2 (2=21-40%) | 5 (5=81-100%) | 2 (2=21-40%) | 5 (5=81-100%) | 4 (4=61-80%) | 2 (2=21-40%)
Cl/C=C/Cn1nc(Cl)c2cccc(Oc3ncc(Cl)cn3)c21 [Compound 1.069] | 5 (5=81-100%) | 4 (4=61-80%) | 2 (2=21-40%) | 3 (3=41-60%) | 2 (2=21-40%) | 3 (3=41-60%) | 2 (2=21-40%) | 5 (5=81-100%) | 3 (3=41-60%) | 1 (1=0-20%)
Cc1cnc(Oc2cccc3c(C(F)(F)F)nn(CCCC(F)(F)F)c23)nc1 [Compound 1.070] | 3 (3=41-60%) | 5 (5=81-100%) | 3 (3=41-60%) | 4 (4=61-80%) | 3 (3=41-60%) | 5 (5=81-100%) | 3 (3=41-60%) | 4 (4=61-80%) | 4 (4=61-80%) | 1 (1=0-20%)
Fc1cnc(Oc2cccc3c(C(F)(F)F)nn(CCCC(F)(F)F)c23)nc1 [Compound 1.071] | 5 (5=81-100%) | 5 (5=81-100%) | 4 (4=61-80%) | 4 (4=61-80%) | 4 (4=61-80%) | 5 (5=81-100%) | 3 (3=41-60%) | 5 (5=81-100%) | 5 (5=81-100%) | 2 (2=21-40%)
FC(F)(F)CCCn1nnc2c(Cl)ccc(Oc3ncc(Cl)cn3)c21 [Compound 1.072] | 4 (4=61-80%) | 1 (1=0-20%) | 3 (3=41-60%) | 3 (3=41-60%) | 3 (3=41-60%) | 4 (4=61-80%) | 1 (1=0-20%) | 4 (4=61-80%) | 2 (2=21-40%) | 1 (1=0-20%)
